Experimental data: patent US20120034312A1, “4-ISOPROPYL-3-METHYLPHENOL FOR THE TREATMENT OF INFLAMMATION” (Glaxo Group Limited, priority 2009, published 2012)

What was measured:
[1] = test system: LPS stimulated Raw 264.7 Macrophage cells
Protocol: Anti-inflammatory activity was assessed on classical inflammation model LPS stimulated Raw 264.7 Macrophage cells. Inflammation response was quantified by measurements of the release of Prostaglandin E2 (PGE2) from the cells. Cells were exposed to E.coli lipopolysaccharide (LPS) with or without IPMP for 24 hours prior to assay. […] All values were normalized to cell viability of same sample, then to the inflammatory response of the cells without the addition of agents or LPS (100%).

[2] = test system: Human Gingival Fibroblasts; assay: PGE2 release from LPS exposed Human Gingival Fibroblasts; assay type: cell-based; settings: for PGE2 Response (with LPS): media only without LPS = 100
Protocol: To further evaluate anti-inflammatory activity of IPMP in the oral cavity, a similar experiment was conducted on Human Gingival Fibroblasts. Cells were exposed to LPS as well as three non-irritating doses of IPMP (see example 1).
Another further experiment with IPMP and zinc chloride was conducted on Human Gingival Fibroblasts.

SMILES | Cell death / cell proliferation at nonirritative dose [1] | Irritation of cells by IPMP by itself [1] | PGE2 Response (without LPS) ([1]; 50 μM IPMP, 24 hours, no LPS, normalized to cell viability and to cells without agents or LPS (100%)) | PGE2 Response (with LPS) ([1]; 50 μM IPMP, E.coli LPS, 24 hours, normalized to cell viability and to cells without agents or LPS (100%)) | PGE2 Response (with LPS) ([2]; 2 μM IPMP) | PGE2 Response (with LPS) ([2]; 10 μM IPMP) | PGE2 Response (with LPS) ([2]; 50 μM IPMP) | Suppression of LPS induced inflammation ([2]; 2, 10, 50 μM IPMP, with LPS) | PGE2 Response (with LPS) ([2]; 55 μM Zinc Chloride)
Cc1cc(O)ccc1C(C)C [IPMP, 4-isopropyl-3-methylphenol] | neither cause cell death nor affect cell proliferation | did not irritate the cells | 101 ± 0.0% | 141 ± 6.4% | 146 ± 46.6% | 127 ± 21.6% | 103 ± 13.3% | suppresses LPS induced inflammation in a dose-dependent manner | 
[Cl-].[Cl-].[Zn+2] [Zinc Chloride, zinc chloride, reference compound] |  |  |  |  |  |  |  |  | 171 ± 2.9%
